Test results published in PMC11532403 (Signal Transduction and Targeted Therapy, 2024).
Read-outs that look alike come from different tables or passages of the source.

How the values were obtained:
CYP1A2 = experiment: CYP induction in hepatocytes; type: in vitro ADME, human; settings: 1, 5, 50 μM, three donors
Pharmacokinetics in rats = type: in vivo, SD rats
[1] = Phase 1 trial: plasma pharmacokinetics; type: in vivo; settings: human; for AUC(0-t): read-out: AUC0–12 h mean; for AUC(0-inf): read-out: AUCINF_obs mean; for Cmax: read-out: Cmax mean; for MRT inf: read-out: MRTINF_obs mean; for half-life: read-out: T1/2 mean (converted); for Tmax: read-out: Tmax mean
From the text: Serial plasma samples were also collected in each patient after the first dose and during multiple-dose administration on Cycle 1 Day 28.

[2] = both sexes, SD, rat, plasma, iv, 1 mg/kg i.v.
[3] = both sexes, SD, rat, plasma, po, gavage 5 mg/kg
[4] = both sexes, SD, rat, plasma, po, gavage 20 mg/kg
[5] = both sexes, SD, rat, plasma, po, gavage 50 mg/kg
[6] = 20 mg, Cycle 1 Day 1, 20 mg BID (n = 1)
[7] = 20 mg, Cycle 1 Day 1, 20 mg QD (n = 1)
[8] = 40 mg, Cycle 1 Day 1, 40 mg BID (n = 3)
[9] = 80 mg, Cycle 1 Day 1, 80 mg BID (n = 3)
[10] = 120 mg, Cycle 1 Day 1, 120 mg BID (n = 3)
[11] = 160 mg, Cycle 1 Day 1, 160 mg BID (n = 23)
[12] = 160 mg, Cycle 1 Day 28, 160 mg BID (n = 15)

## COc1ccc(CN2C3CC2CN(c2ccc(-c4cc(N5CC(C)(O)C5)cn5ncc(C#N)c45)cn2)C3)cn1 [SY-5007, 6-(3-hydroxy-3-methylazetidin-1-yl)-4-(6-(6-((6-methoxypyridin-3-yl)methyl)-3,6-diazabicyclo[3.1.1]heptan-3-yl)pyridin-3-yl)pyrazolo[1,5-a]pyridine-3-carbonitrile]
CYP1A2
  CYP1A2 induction: no induction
Pharmacokinetics in rats; [2]
  clearance: 3.42 mL/min/kg
  half-life: 200 min
Pharmacokinetics in rats; both sexes, SD, rat, plasma, iv, 1 mg/kg i.v., read-out: Vss
  Vd: 0.697 L/kg
Pharmacokinetics in rats; [3]
  AUC(0-inf): 11900 ng·h/mL
  Cmax: 2190 ng/mL
Pharmacokinetics in rats; [4]
  AUC(0-inf): 48100 ng·h/mL
  Cmax: 7150 ng/mL
Pharmacokinetics in rats; [5]
  AUC(0-inf): 112000 ng·h/mL
  Cmax: 12600 ng/mL
Pharmacokinetics in rats; both sexes, SD, rat, plasma, po, gavage 5-50 mg/kg
  half-life: 217 to 269 min
Pharmacokinetics in rats; both sexes, SD, rat, plasma, po, gavage 5-50 mg/kg, read-out: MRTINF_obs
  MRT inf: 4.92 to 6.96 h
Pharmacokinetics in rats; both sexes, SD, rat, plasma, po, gavage 5-50 mg/kg, read-out: Oral bioavailability (F)
  bioavailability: 39.1 to 42.1%
Pharmacokinetics in rats; both sexes, SD, rat, plasma, po, single gavage 5, 20, 50 mg/kg
  Tmax: 0.25 to 2 h
Pharmacokinetics in rats; males, 20 mg/kg once daily 7 days
  AUC0-24h increase day 7 vs day 1: 47.3%
[1]; [6]
  AUC(0-t): 1580 ng·h/mL
  AUC(0-inf): 3830 ng·h/mL
  Cmax: 214 ng/mL
  MRT inf: 16.7 h
  half-life: 726 min
  Tmax: 4 h
[1]; [7]
  AUC(0-t): 2230 ng·h/mL
  AUC(0-inf): 2410 ng·h/mL
  Cmax: 391 ng/mL
  MRT inf: 7.7 h
  half-life: 408 min
  Tmax: 1 h
[1]; [8]
  AUC(0-t): 2720 ng·h/mL
  AUC(0-inf): 3760 ng·h/mL
  Cmax: 714 ng/mL
  MRT inf: 8.9 h
  half-life: 522 min
  Tmax: 0.5 h
[1]; [9]
  AUC(0-t): 5150 ng·h/mL
  AUC(0-inf): 7220 ng·h/mL
  Cmax: 1450 ng/mL
  MRT inf: 12.4 h
  half-life: 2270 min
  Tmax: 0.5 h
[1]; [10]
  AUC(0-t): 9270 ng·h/mL
  AUC(0-inf): 14100 ng·h/mL
  Cmax: 2470 ng/mL
  MRT inf: 11.6 h
  half-life: 2660 min
  Tmax: 0.5 h
[1]; [11]
  AUC(0-t): 16700 ng·h/mL
  AUC(0-inf): 21300 ng·h/mL
  Cmax: 3470 ng/mL
  MRT inf: 8.2 h
  half-life: 648 min
  Tmax: 1 h
[1]; [12]
  AUC(0-t): 36800 ng·h/mL
  AUC(0-inf): 67200 ng·h/mL
  Cmax: 4730 ng/mL
  MRT inf: 13.9 h
  half-life: 540 min
  Tmax: 2 h
